target: T1, mAChR M1 (UniProt P11229); test: mAChR M1 cell-based functional assay (calcium mobilization, potentiation of EC20 acetylcholine response); conditions: % ACh maximum at 30 μM; mAChR M1-expressing CHO-K1 cells, calcium flux
T1 sequence (P11229 1-460): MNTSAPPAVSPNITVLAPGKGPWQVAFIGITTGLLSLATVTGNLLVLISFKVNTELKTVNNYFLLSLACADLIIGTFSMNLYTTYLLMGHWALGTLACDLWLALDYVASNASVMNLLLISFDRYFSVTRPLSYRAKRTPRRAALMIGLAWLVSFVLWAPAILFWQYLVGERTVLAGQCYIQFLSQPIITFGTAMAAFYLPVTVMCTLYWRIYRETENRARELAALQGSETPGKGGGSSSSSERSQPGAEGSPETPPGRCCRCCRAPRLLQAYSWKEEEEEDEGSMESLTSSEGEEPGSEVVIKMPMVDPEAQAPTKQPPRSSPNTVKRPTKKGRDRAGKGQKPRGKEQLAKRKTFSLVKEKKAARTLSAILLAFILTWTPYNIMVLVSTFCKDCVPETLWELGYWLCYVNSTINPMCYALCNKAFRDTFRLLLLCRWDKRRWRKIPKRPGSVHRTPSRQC
Description: Chinese hamster ovary (CHO-K1) cells stably expressing rat (r)M1 were purchased from the American Type Culture Collection and cultured according to their indicated protocol. […] To make stable rM2, hM2, rM3, hM4, and rM4 cell lines for use in calcium mobilization assays, these cells also were stably transfected with a chimeric G-protein (Gqi5) (provided by B. R. Conklin, University of California, San Francisco) using Lipofectamine 2000. rM1, hM1, rM3, hM3, rM5, and hM5 cells were grown in Ham's F-12 medium containing 10% heat-inactivated fetal bovine serum (FBS), 20 mM HEPES, and 50 μg/mL G418 sulfate. rM2-Gqi5, hM2-Gqi5, and hM4-Gqi5 cells were grown in the same medium also containing 500 μg/mL Hygromycin B. Stable rM4-Gqi5 cells were grown in DMEM containing 10% heat-inactivated FBS, 20 mM HEPES, 400 μg/mL G418 sulfate, and 500 μg/mL Hygromycin B.
For high throughput measurement of agonist-evoked increases in intracellular calcium, CHO-K1 cells stably expressing muscarinic receptors were plated in growth medium lacking G418 and hygromycin at 15,000 cells/20 μL/well in Greiner 384-well black-walled, tissue culture (TC)-treated, clear-bottom plates (VWR). Cells were incubated overnight at 37° C. and 5% CO2. […] Compound master plates were formatted in an 11 point CRC format (1:3 dilutions) in 100% DMSO with a starting concentration of 10 mM using the BRAVO liquid handler (Agilent). Test compound CRCs were then transferred to daughter plates (240 nL) using the Echo acoustic plate reformatter (Labcyte, Sunnyvale, Calif.) and then diluted into assay buffer (40 μL) to a 2× stock using a Thermo Fisher Combi (Thermo Fisher Scientific, Waltham, Mass.).
Calcium flux was measured using the Functional Drug Screening System (FDSS) 6000 (Hamamatsu Corporation, Tokyo, Japan) as an increase in the fluorescent static ratio. Compounds were applied to cells (20 μL, 2×) using the automated system of the FDSS 6000 at 4 s into the 300 s protocol and the data were collected at 1 Hz. […] Agonist activity was analyzed as a concentration-dependent increase in calcium mobilization upon compound addition. Positive allosteric modulator activity was analyzed as a concentration-dependent increase in the EC20 acetylcholine response. Antagonist activity was analyzed as a concentration-dependent decrease in the EC80 acetylcholine response. Concentration-response curves were generated using a four-parameter logistical equation in XLfit curve fitting software (IDBS, Bridgewater, N.J.) for Excel (Microsoft, Redmond, Wash.) or Prism (GraphPad Software, Inc., San Diego, Calif.).
The above described assay was also operated in a second mode where an appropriate fixed concentration of the present compounds were added to the cells after establishment of a fluorescence baseline for about 3 seconds, and the response in cells was measured. […] Data were reduced as described above and the EC50 values for the agonist in the presence of test compound were determined by nonlinear curve fitting. A decrease in the EC50 value of the agonist with increasing concentrations of the present compounds (a leftward shift of the agonist concentration-response curve) is an indication of the degree of muscarinic positive allosteric modulation at a given concentration of the present compound. An increase in the EC50 value of the agonist with increasing concentrations of the present compounds (a rightward shift of the agonist concentration response curve) is an indication of the degree of muscarinic antagonism at a given concentration of the present compound. The second mode also indicates whether the present compounds also affect the maximum response of the muscarinic receptor to agonists.
The calcium mobilization assay was also used to determine “efficacy”.

Row | SMILES | Emax (%)
1 | O=C1c2cccnc2CN1Cc1ccc(-c2ccnc3ccccc23)cc1F [Example B45] | 44%
2 | O=C1c2cccnc2CN1Cc1ccc(-c2cccnc2)cc1F [Example B47] | 54%
3 | CN(C)c1ccc(-c2ccc(CN3Cc4ncccc4C3=O)c(F)c2)cc1 [Example B52] | 53%
4 | CN1CC=C(c2ccc(CN3Cc4ncccc4C3=O)c(F)c2)CC1 [Example B53] | 80%
5 | CN1CCc2cc(-c3ccc(CN4Cc5ncccc5C4=O)c(F)c3)ccc21 [Example B55] | 60%
6 | O=C1c2cccnc2CN1Cc1ccc(-c2ccc3nccn3c2)cc1F [Example B57] | 69%
7 | Cn1cc2cc(Nc3ccc(CN4Cc5ncccc5C4=O)c(F)c3)ccc2n1 [Example B58] | 66%
8 | Cn1ncc2cc(-c3ccc(CN4Cc5cccnc5C4=O)c(F)c3)ccc21 [Example B61] | 38%
9 | Cc1cc(-c2ccc(CN3Cc4cccnc4C3=O)c(F)c2)cnc1Cl [Example B63] | 48%
10 | O=C1c2ncccc2CN1Cc1ccc(-c2cccnc2)cc1F [Example B64] | 50%

Now from value to molecule:

Row | Emax (%) | SMILES
11 | 76% | Cn1ncc2ccc(-c3ccc(CN4Cc5cccnc5C4=O)c(F)c3)cc21 [Example B60]
12 | 68% | O=C1c2cccnc2CN1Cc1ccc(-c2ccc3ccncc3c2)cc1F [Example B49]
13 | 33% | Cc1cc(-c2ccc(CN3Cc4ncccc4C3=O)c(F)c2)cnc1Cl [Example B46]
14 | 34% | COc1ccc(-c2ccc(CN3Cc4ncccc4C3=O)c(F)c2)cc1 [Example B50]
15 | 72% | Cn1cc2c(-c3ccc(CN4Cc5cccnc5C4=O)c(F)c3)cccc2n1 [Example B62]
16 | 65% | O=C1c2cccnc2CN1Cc1ccc(-c2ccc3ncccc3c2)cc1F [Example B48]
17 | 81% | Cn1cnc2ccc(-c3ccc(CN4Cc5ncccc5C4=O)c(F)c3)cc21 [Example B54]
18 | 56% | Cn1cc2cc(-c3ccc(CN4Cc5ncccc5C4=O)cc3)ccc2n1 [Example B59]
19 | 80% | Cn1cc2cc(-c3ccc(CN4Cc5ncncc5C4=O)c(F)c3)ccc2n1 [Example B56]
20 | 73% | Cn1cc2cc(-c3cc(F)c(CN4Cc5ncccc5C4=O)c(F)c3)ccc2n1 [Example B51]

same assay, conditions: positive allosteric modulation of EC20 ACh response, mAChR M1 CHO-K1 cells; <5 estimated where no plateau

Row | SMILES | pEC50
21 | O=C1c2cccnc2CN1Cc1ccc(-c2ccnc3ccccc23)cc1F [Example B45] | 5.43
22 | O=C1c2cccnc2CN1Cc1ccc(-c2cccnc2)cc1F [Example B47] | 5.22
23 | CN(C)c1ccc(-c2ccc(CN3Cc4ncccc4C3=O)c(F)c2)cc1 [Example B52] | <5.00
24 | CN1CC=C(c2ccc(CN3Cc4ncccc4C3=O)c(F)c2)CC1 [Example B53] | 5.51
25 | CN1CCc2cc(-c3ccc(CN4Cc5ncccc5C4=O)c(F)c3)ccc21 [Example B55] | 5.64
26 | O=C1c2cccnc2CN1Cc1ccc(-c2ccc3nccn3c2)cc1F [Example B57] | 5.68
27 | Cn1cc2cc(Nc3ccc(CN4Cc5ncccc5C4=O)c(F)c3)ccc2n1 [Example B58] | 5.43
28 | Cn1ncc2cc(-c3ccc(CN4Cc5cccnc5C4=O)c(F)c3)ccc21 [Example B61] | <5.00
29 | Cc1cc(-c2ccc(CN3Cc4cccnc4C3=O)c(F)c2)cnc1Cl [Example B63] | 5.73
30 | O=C1c2ncccc2CN1Cc1ccc(-c2cccnc2)cc1F [Example B64] | <5.00

Further lines, results first:

Row | pEC50 | SMILES
31 | 5.80 | Cn1ncc2ccc(-c3ccc(CN4Cc5cccnc5C4=O)c(F)c3)cc21 [Example B60]
32 | 5.81 | O=C1c2cccnc2CN1Cc1ccc(-c2ccc3ccncc3c2)cc1F [Example B49]
33 | 5.99 | Cc1cc(-c2ccc(CN3Cc4ncccc4C3=O)c(F)c2)cnc1Cl [Example B46]
34 | 6.01 | COc1ccc(-c2ccc(CN3Cc4ncccc4C3=O)c(F)c2)cc1 [Example B50]
35 | 6.07 | Cn1cc2c(-c3ccc(CN4Cc5cccnc5C4=O)c(F)c3)cccc2n1 [Example B62]
36 | 6.08 | O=C1c2cccnc2CN1Cc1ccc(-c2ccc3ncccc3c2)cc1F [Example B48]
37 | 6.13 | Cn1cnc2ccc(-c3ccc(CN4Cc5ncccc5C4=O)c(F)c3)cc21 [Example B54]
38 | 6.30 | Cn1cc2cc(-c3ccc(CN4Cc5ncccc5C4=O)cc3)ccc2n1 [Example B59]
39 | 6.40 | Cn1cc2cc(-c3ccc(CN4Cc5ncncc5C4=O)c(F)c3)ccc2n1 [Example B56]
40 | 6.59 | Cn1cc2cc(-c3cc(F)c(CN4Cc5ncccc5C4=O)c(F)c3)ccc2n1 [Example B51]

same assay, conditions: positive allosteric modulation of EC20 ACh response, mAChR M1 CHO-K1 cells; >10 μM estimated where no plateau

Row | SMILES | EC50
41 | CN1CCc2cc(-c3ccc(CN4Cc5ncccc5C4=O)c(F)c3)ccc21 [Example B55] | 2290 nM

same assay, conditions: positive allosteric modulation of EC20 ACh response, mAChR M1 CHO-K1 cells; >10 μM estimated where no plateau; read-out: EC50

Row | SMILES | EC50
42 | O=C1c2cccnc2CN1Cc1ccc(-c2ccnc3ccccc23)cc1F [Example B45] | 3720 nM
43 | O=C1c2cccnc2CN1Cc1ccc(-c2cccnc2)cc1F [Example B47] | 6030 nM
44 | CN(C)c1ccc(-c2ccc(CN3Cc4ncccc4C3=O)c(F)c2)cc1 [Example B52] | > 10000 nM
45 | CN1CC=C(c2ccc(CN3Cc4ncccc4C3=O)c(F)c2)CC1 [Example B53] | 3090 nM
46 | O=C1c2cccnc2CN1Cc1ccc(-c2ccc3nccn3c2)cc1F [Example B57] | 2090 nM
47 | Cn1cc2cc(Nc3ccc(CN4Cc5ncccc5C4=O)c(F)c3)ccc2n1 [Example B58] | 3720 nM
48 | Cn1ncc2cc(-c3ccc(CN4Cc5cccnc5C4=O)c(F)c3)ccc21 [Example B61] | > 10000 nM
49 | Cc1cc(-c2ccc(CN3Cc4cccnc4C3=O)c(F)c2)cnc1Cl [Example B63] | 1860 nM
50 | O=C1c2ncccc2CN1Cc1ccc(-c2cccnc2)cc1F [Example B64] | > 10000 nM

Results, then the molecule that gave them:

Row | EC50 | SMILES
51 | 1590 nM | Cn1ncc2ccc(-c3ccc(CN4Cc5cccnc5C4=O)c(F)c3)cc21 [Example B60]
52 | 1550 nM | O=C1c2cccnc2CN1Cc1ccc(-c2ccc3ccncc3c2)cc1F [Example B49]
53 | 1020 nM | Cc1cc(-c2ccc(CN3Cc4ncccc4C3=O)c(F)c2)cnc1Cl [Example B46]
54 | 977 nM | COc1ccc(-c2ccc(CN3Cc4ncccc4C3=O)c(F)c2)cc1 [Example B50]
55 | 851 nM | Cn1cc2c(-c3ccc(CN4Cc5cccnc5C4=O)c(F)c3)cccc2n1 [Example B62]
56 | 832 nM | O=C1c2cccnc2CN1Cc1ccc(-c2ccc3ncccc3c2)cc1F [Example B48]
57 | 741 nM | Cn1cnc2ccc(-c3ccc(CN4Cc5ncccc5C4=O)c(F)c3)cc21 [Example B54]
58 | 501 nM | Cn1cc2cc(-c3ccc(CN4Cc5ncccc5C4=O)cc3)ccc2n1 [Example B59]
59 | 398 nM | Cn1cc2cc(-c3ccc(CN4Cc5ncncc5C4=O)c(F)c3)ccc2n1 [Example B56]
60 | 257 nM | Cn1cc2cc(-c3cc(F)c(CN4Cc5ncccc5C4=O)c(F)c3)ccc2n1 [Example B51]
